Measured values published in PMC11637378, “Optogenetic screening of MCT1 activity implicates a cluster of non-steroidal anti-inflammatory drugs (NSAIDs) as inhibitors of lactate transport” (PLOS ONE, 2024).
Several values for one entry are separate records, joined by “and”; a condition that tells them apart may be missing. Equal entries are not always repeated. Where two headings read alike, the source gives them in different places.

What was measured:
parent strain (SAWy518) [1] = experiment: microbe, parasite or virus in culture; set-up: species or system Saccharomyces cerevisiae SAWy518; Off-target growth counter-screen, OD600 as per cent of untreated wells, strain lacking MCT1; details: 18.5 h; sheet Primary Screen - final;; off-target growth of parent strain, about 18 h
[2] = target: neurokinin 1 (NK1) receptor; details: library annotation; cited from earlier work
[3] = target: neurokinin 1 (NK1) receptor; details: library annotation; cited from earlier work; remark: listed apart in the source
parent strain (SAWy518) [4] = test system: parent strain (SAWy518)
[5] = target: neurokinin 1 (NK1) receptor; set-up: method as in not given; details: library annotation; ref not given; cited from earlier work
MCT1 (wildtype) = MCT1 (wildtype) (UniProt P36035+P53987); experiment: Growth with lactate as sole carbon source, by4741 Δjen1 expressing wild-type MCT1
Chain of MCT1 (wildtype) (P36035+P53987 fused): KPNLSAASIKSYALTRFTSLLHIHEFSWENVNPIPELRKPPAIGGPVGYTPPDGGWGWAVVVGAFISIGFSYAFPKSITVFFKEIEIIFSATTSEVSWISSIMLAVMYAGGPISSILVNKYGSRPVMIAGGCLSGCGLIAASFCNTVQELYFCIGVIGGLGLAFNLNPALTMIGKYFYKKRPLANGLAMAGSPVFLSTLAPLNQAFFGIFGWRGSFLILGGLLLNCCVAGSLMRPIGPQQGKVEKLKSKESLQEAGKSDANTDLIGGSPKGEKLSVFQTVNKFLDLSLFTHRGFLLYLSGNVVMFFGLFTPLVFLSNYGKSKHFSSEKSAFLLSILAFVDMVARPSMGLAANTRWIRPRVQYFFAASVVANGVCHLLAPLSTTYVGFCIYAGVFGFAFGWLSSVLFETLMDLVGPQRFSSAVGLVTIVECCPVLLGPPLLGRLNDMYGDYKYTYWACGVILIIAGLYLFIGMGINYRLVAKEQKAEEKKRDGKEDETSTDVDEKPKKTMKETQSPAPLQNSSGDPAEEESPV
Experimental: (§1) Yeast was propagated, transformed, and assayed in synthetic complete media. Synthetic media was composed of 1.5 g Difco yeast nitrogen base without amino acids and ammonium sulfate, 5 g ammonium sulfate, 200 μM inositol, and 2 g amino acid powder mix per liter. For all studies using MCT1, uracil was excluded to maintain plasmid selection. The carbon source for most experiments was 2% glucose; however, for growth in alternative carbon sources lactate (0.5% v/v) or pyruvate (40 mM) was used instead with media pH adjustment to 5.0.
(§2) For growth in lactate or pyruvate as a sole carbon source by4741 and an equivalent strain with a JEN1 knockout was obtained from the nonessential gene deletion library [62].
(§3) Supplementary file pone.0312492.s005.tif: S5 Fig Growth of the optimal MCT1 fusion in lactate and sensitivity to AZD3965 administration. […] AZD3965 was added to the media at a concentration of 10 μM.

Δjen1 EV = experiment: Growth with lactate as sole carbon source, Δjen1 carrying empty vector (EV) control; format: cell-based, Saccharomyces cerevisiae
MCT1 (F360C) = MCT1 (F360C) (UniProt P36035+P53987, F360C); experiment: Growth with lactate as sole carbon source, by4741 Δjen1 expressing MCT1(F360C); details: for growth curve reading, single replicate / growth curve reading, mean of 4 replicates: Δjen1 MCT1(F360C)
Chain of MCT1 (F360C) (P36035+P53987 fused P53987:F360C): as the sequence (P36035+P53987 fused) above, with F398C counted along it
Experimental: as §1, §2, §3

SAWy710 (EV) = experiment: High throughput assay validation, empty vector (EV) control strain SAWy710, AZD versus DMSO; format: cell-based, Saccharomyces cerevisiae; details: individual wells 1-16, listed as AZD
MCT1 = details: cited from earlier work
[6] = patients with advanced cancer; dose-limiting toxicity relating to retinopathy at higher concentrations; cited from earlier work
MCT4 [7] = details: HAP1 cells, library annotation; cited from earlier work
cancer cell growth = details: 10 μM, administered alone; cited from earlier work
MCT4 [8] = details: HAP1 cells; NOTES column annotation; cited from earlier work
tumor growth = details: cited from earlier work
survivin [9] = details: library annotation; cited from earlier work
survivin [10] = details: NOTES column annotation; cited from earlier work
survivin [11] = details: library annotation; cited from earlier work; remark: listed apart in the source

## Cc1ccccc1-c1cc(N2CCN(C)CC2)ncc1N(C)C(=O)C(C)(C)c1cc(C(F)(F)F)cc(C(F)(F)F)c1 [Netupitant]
Parent strain (SAWy518) [1]
  viability at 10 µM: 103%
[2]
  Ki: 0.95 nM
[3]
  Ki: 0.95 nM
Parent strain (SAWy518) [4]
  OffScreen_percentage: 103.271 percentage
  Offscreen_18hr: 0.8334
  Offscreen_24hr: 0.9137
  Offscreen_42hr: 0.9839
  Read_percentage: 103.271 percentage
[5]
  Ki: 0.95 nM

## Cc1[nH]nc(C(F)(F)F)c1Cc1sc2c(c1C(=O)N1C[C@](C)(O)CO1)c(=O)n(C)c(=O)n2C(C)C [AZD3965]
MCT1 (wildtype); wildtype MCT1, AZD3965 10 μM, 0.5% lactate (S5 Fig)
  growth in media with lactate as the sole carbon source: inhibited growth
MCT1 (wildtype); Δjen1 MCT1, T0, time 0
  growth curve reading, single replicate: 0.0402
MCT1 (wildtype); Δjen1 MCT1, T1, time 19
  growth curve reading, single replicate: 0.1316 and 0.1252 and 0.1281 and 0.1266
MCT1 (wildtype); Δjen1 MCT1, T2, time 21
  growth curve reading, single replicate: 0.1442 and 0.1394 and 0.1417 and 0.1396
MCT1 (wildtype); Δjen1 MCT1, T3, time 25
  growth curve reading, single replicate: 0.1656 and 0.1622 and 0.1633 and 0.1608
MCT1 (wildtype); Δjen1 MCT1, T4, time 27.5
  growth curve reading, single replicate: 0.1778 and 0.1729 and 0.1762
MCT1 (wildtype); Δjen1 MCT1, T5, time 43
  growth curve reading, single replicate: 0.2083 and 0.2030 and 0.2026 and 0.2041
MCT1 (wildtype); Δjen1 MCT1, T6, time 45.5
  growth curve reading, single replicate: 0.2171 and 0.2098 and 0.2095 and 0.2126
MCT1 (wildtype); Δjen1 MCT1, T7, time 48
  growth curve reading, single replicate: 0.2154 and 0.2089 and 0.2128 and 0.2107
MCT1 (wildtype); Δjen1 MCT1, time 0
  growth curve reading, mean of 4 replicates: 0.0402
MCT1 (wildtype); Δjen1 MCT1, time 19
  growth curve reading, mean of 4 replicates: 0.1279
MCT1 (wildtype); Δjen1 MCT1, time 21
  growth curve reading, mean of 4 replicates: 0.1412
MCT1 (wildtype); Δjen1 MCT1, time 25
  growth curve reading, mean of 4 replicates: 0.1630
MCT1 (wildtype); Δjen1 MCT1, time 27.5
  growth curve reading, mean of 4 replicates: 0.1750
MCT1 (wildtype); Δjen1 MCT1, time 43
  growth curve reading, mean of 4 replicates: 0.2045
MCT1 (wildtype); Δjen1 MCT1, time 45.5
  growth curve reading, mean of 4 replicates: 0.2122
MCT1 (wildtype); Δjen1 MCT1, time 48
  growth curve reading, mean of 4 replicates: 0.2120
Δjen1 EV; T1, time 19
  growth curve reading, single replicate: 0.1091 and 0.1160 and 0.1215 and 0.1310
Δjen1 EV; T2, time 21
  growth curve reading, single replicate: 0.1392 and 0.1432 and 0.1501
Δjen1 EV; T3, time 25
  growth curve reading, single replicate: 0.1257 and 0.1403 and 0.1504
Δjen1 EV; T4, time 27.5
  growth curve reading, single replicate: 0.1322 and 0.1452 and 0.1564 and 0.1709
Δjen1 EV; T5, time 43
  growth curve reading, single replicate: 0.1444 and 0.1533 and 0.1681 and 0.1884
Δjen1 EV; T6, time 45.5
  growth curve reading, single replicate: 0.1453 and 0.1535 and 0.1657 and 0.1862
Δjen1 EV; T7, time 48
  growth curve reading, single replicate: 0.1464 and 0.1540 and 0.1668 and 0.1877
Δjen1 EV; time 19
  growth curve reading, mean of 4 replicates: 0.1194
Δjen1 EV; time 21
  growth curve reading, mean of 4 replicates: 0.1435
Δjen1 EV; time 25
  growth curve reading, mean of 4 replicates: 0.1449
Δjen1 EV; time 27.5
  growth curve reading, mean of 4 replicates: 0.1512
Δjen1 EV; time 43
  growth curve reading, mean of 4 replicates: 0.1636
Δjen1 EV; time 45.5
  growth curve reading, mean of 4 replicates: 0.1627
Δjen1 EV; time 48
  growth curve reading, mean of 4 replicates: 0.1637
MCT1 (F360C); MCT1 F360C, AZD3965 10 μM, 0.5% lactate (S5 Fig)
  growth in media with lactate as the sole carbon source: inhibited growth
MCT1 (F360C); T0, time 0
  growth curve reading, single replicate: 0.0403
MCT1 (F360C); T1, time 19
  growth curve reading, single replicate: 0.1093 and 0.1204 and 0.1196 and 0.1290
MCT1 (F360C); T2, time 21
  growth curve reading, single replicate: 0.1288 and 0.1364 and 0.1335
MCT1 (F360C); T3, time 25
  growth curve reading, single replicate: 0.1550 and 0.1804 and 0.1853 and 0.2001
MCT1 (F360C); T4, time 27.5
  growth curve reading, single replicate: 0.1660 and 0.1913 and 0.2008 and 0.2152
MCT1 (F360C); T5, time 43
  growth curve reading, single replicate: 0.1991 and 0.2285 and 0.2378 and 0.2578
MCT1 (F360C); T6, time 45.5
  growth curve reading, single replicate: 0.2030 and 0.2318 and 0.2431 and 0.2629
MCT1 (F360C); T7, time 48
  growth curve reading, single replicate: 0.2036 and 0.2334 and 0.2458 and 0.2644
MCT1 (F360C); time 0
  growth curve reading, mean of 4 replicates: 0.0403
MCT1 (F360C); time 19
  growth curve reading, mean of 4 replicates: 0.1196
MCT1 (F360C); time 21
  growth curve reading, mean of 4 replicates: 0.1338
MCT1 (F360C); time 25
  growth curve reading, mean of 4 replicates: 0.1802
MCT1 (F360C); time 27.5
  growth curve reading, mean of 4 replicates: 0.1933
MCT1 (F360C); time 43
  growth curve reading, mean of 4 replicates: 0.2308
MCT1 (F360C); time 45.5
  growth curve reading, mean of 4 replicates: 0.2352
MCT1 (F360C); time 48
  growth curve reading, mean of 4 replicates: 0.2368
SAWy710 (EV); Condition non, Replicate1, EV strain SAWy710, 10 µM AZD
  OD600: 0.1411 and 0.1378 and 0.134 and 0.1369 and 0.1383 and 0.1317 and 0.135 and 0.1363 and 0.1403 and 0.1392 and 0.1365 and 0.1389 and 0.1394 and 0.149
SAWy710 (EV); Condition non, Replicate2, EV strain SAWy710, 10 µM AZD
  OD600: 0.1384 and 0.1406 and 0.1366 and 0.135 and 0.1021 and 0.1315 and 0.1407 and 0.1329 and 0.1336 and 0.1393 and 0.1343 and 0.134 and 0.138 and 0.1378 and 0.1431
SAWy710 (EV); Condition perm, Replicate1, EV strain SAWy710, 10 µM AZD
  OD600: 0.7718 and 0.7777 and 0.7776 and 0.7734 and 0.7269 and 0.7398 and 0.7671 and 0.7655 and 0.7645 and 0.774 and 0.768 and 0.7629 and 0.759 and 0.7698 and 0.7556 and 0.7591
SAWy710 (EV); Condition perm, Replicate2, EV strain SAWy710, 10 µM AZD
  OD600: 0.1774 and 0.1728 and 0.1654 and 0.1606 and 0.1374 and 0.1596 and 0.1712 and 0.1673 and 0.1713 and 0.168 and 0.1743 and 0.17 and 0.1727 and 0.1704 and 0.1842
MCT1; read-out: previously reported IC50 value
  IC50: 5.12 nM
[6]
  tolerability in phase-1 clinical trial: relatively well tolerated

## CCOC(=O)Oc1c(OC)cc(C(=O)O[C@@H]2C[C@@H]3CN4CCc5c([nH]c6cc(OC)ccc56)[C@H]4C[C@@H]3[C@H](C(=O)OC)[C@H]2OC)cc1OC [Syrosingopine]
MCT4 [7]
  IC50: 40 nM
Parent strain (SAWy518) [1]
  viability at 10 µM: 92.3%
Parent strain (SAWy518) [4]
  OffScreen_percentage: 92.2553 percentage
  Offscreen_18hr: 0.7445
  Offscreen_24hr: 0.7958
  Offscreen_42hr: 0.9268
  Read_percentage: 92.2553
Cancer cell growth
  in vitro cancer cell growth: inhibit in vitro cancer cell growth
MCT1; HAP1 cells, library annotation, read-out: IC50 MCT1
  IC50: 2500 nM
MCT4 [8]
  IC50: 40 nM
Tumor growth; alone versus paired with metformin
  tumor growth in in vivo cancer models: only effective in reducing tumor growth when paired with the mitochondrial oxidative phosphorylation inhibitor metformin
Tumor growth; mice
  dose required to inhibit tumor growth in mice: 7.5 mg/kg

## YM155
Survivin [9]
  IC50: 0.54 nM
Survivin [10]
  IC50: 0.54 nM
Survivin [11]
  IC50: 0.54 nM
Parent strain (SAWy518) [4]
  OffScreen_percentage: 103.73 percentage
  Offscreen_18hr: 0.8371
  Offscreen_24hr: 0.9154
  Offscreen_42hr: 0.9694
  Read_percentage: 103.73
